Experimental findings from patent US20070128217A1 (priority 2003, published 2007) are described below.

Assay [1] has as its system control sera (pooled serum of ten healthy LUMC hospital workers; commercial negative donor pooled serum from the Dutch bloodbank). The assay is classed as binding, human. Further details: Binding of Control serum LUMC to linear peptides / Binding of Control serum Blood-bank to linear peptides / Binding of Control serum LUMC to looped peptides / Binding of Control Serum Blood-Bank to Looped peptides / Binding of Control serum LUMC to linear peptides of the protein M of SARS-CoV Urbani / Binding of Control serum Blood-bank to linear peptides of the protein M of SARS-CoV Urbani / Binding of Control serum LUMC to looped peptides of the protein M of SARS-CoV Urbani / Binding of Control Serum Blood-Bank to Looped peptides of the protein M of SARS-CoV Urbani: unit not given here.

Assay [2] concerns rabbit serum obtained by immunizing a rabbit with the SARS-CoV strain Frankfurt 1. It counts as binding. Set-up: Binding of a rabbit serum to linear peptides / Binding of a rabbit serum to looped peptides / Rabbit serum linear peptides / Rabbit serum looped peptides / Binding of a rabbit serum to linear peptides of protein N of SARS-CoV Urbani (Rabbit serum linear peptides) / Binding of a rabbit serum to looped/cyclic peptides of protein N of SARS-CoV Urbani (Rabbit serum looped peptides): unit not given here.

Regarding SYYKLGASQRVGTDS, in assay [1], the “Binding of Control Serum Blood-Bank to Looped peptides of the protein M of SARS-CoV Urbani” value is given as 0.8, the “Binding of Control serum Blood-bank to linear peptides of the protein M of SARS-CoV Urbani” value turned out to be 0.8, the “Binding of Control serum LUMC to linear peptides of the protein M of SARS-CoV Urbani” value was found to be 0.4 and the “Binding of Control serum LUMC to looped peptides of the protein M of SARS-CoV Urbani” value came to 0.7. In assay [2], the “Rabbit serum linear peptides” value stood at 0.4 and the “Rabbit serum looped peptides” value was 0.3.
Regarding TAQPVKIDNASPAST, in assay [1], the “Binding of Control Serum Blood-Bank to Looped peptides” value amounted to 0.5, the “Binding of Control serum Blood-bank to linear peptides” value amounted to 0.7, the “Binding of Control serum LUMC to linear peptides” value came out at 0.6 and the “Binding of Control serum LUMC to looped peptides” value worked out at 0.6. For the same sequence, in assay [2], the “Binding of a rabbit serum to linear peptides” value is 0.1 and the “Binding of a rabbit serum to looped peptides” value is given as 0.4.
Regarding TGGIAIAMACIVGLM, in assay [1], the “Binding of Control Serum Blood-Bank to Looped peptides of the protein M of SARS-CoV Urbani” value came out at 1.1, the “Binding of Control serum Blood-bank to linear peptides of the protein M of SARS-CoV Urbani” value is 1.1, the “Binding of Control serum LUMC to linear peptides of the protein M of SARS-CoV Urbani” value turned out to be 0.6 and the “Binding of Control serum LUMC to looped peptides of the protein M of SARS-CoV Urbani” value came out at 1.1. In assay [2], the “Rabbit serum linear peptides” value is 0.5 and the “Rabbit serum looped peptides” value is 0.3.
For the sequence THNYDYCIPYNSVTD, in assay [1], the “Binding of Control Serum Blood-Bank to Looped peptides” value came to 0.7, the “Binding of Control serum Blood-bank to linear peptides” value turned out to be 0.5, the “Binding of Control serum LUMC to linear peptides” value came out at 0.6 and the “Binding of Control serum LUMC to looped peptides” value is recorded as 0.7. Also, in assay [2], the “Binding of a rabbit serum to linear peptides” value is 0.1 and the “Binding of a rabbit serum to looped peptides” value worked out at 0.6.
Take TKKNYSELDDEEPME: in assay [1], the “Binding of Control Serum Blood-Bank to Looped peptides of the protein X3 of SARS-CoV Urbani” value is reported as 0.4, the “Binding of Control serum Blood-bank to linear peptides of the protein X3 of SARS-CoV Urbani” value was determined as 0.8, the “Binding of Control serum LUMC to linear peptides of the protein X3 of SARS-CoV Urbani” value is 0.4 and the “Binding of Control serum LUMC to looped peptides of the protein X3 of SARS-CoV Urbani” value is reported as 0.9. Further, in assay [2], the “Rabbit serum linear peptides” value was 0.2 and the “Rabbit serum looped peptides” value turned out to be 0.1.
For the sequence TKLVVILRIGTQVLK, in assay [1], the “Binding of Control Serum Blood-Bank to Looped peptides” value stood at 0.6, the “Binding of Control serum Blood-bank to linear peptides” value turned out to be 0.7, the “Binding of Control serum LUMC to linear peptides” value was found to be 0.5 and the “Binding of Control serum LUMC to looped peptides” value is 0.7. In assay [2], the “Binding of a rabbit serum to linear peptides” value is reported as 0.3 and the “Binding of a rabbit serum to looped peptides” value is 0.6.
On to TPKLKEDYQIGGYSE, for which, in assay [1], the “Binding of Control Serum Blood-Bank to Looped peptides” value is 0.7, the “Binding of Control serum Blood-bank to linear peptides” value worked out at 0.5, the “Binding of Control serum LUMC to linear peptides” value is recorded as 0.6 and the “Binding of Control serum LUMC to looped peptides” value came to 0.9. In assay [2], the “Binding of a rabbit serum to linear peptides” value stood at 0.1 and the “Binding of a rabbit serum to looped peptides” value is listed as 1.2.
As for TQVLKTMSLYMAISP, in assay [1], the “Binding of Control Serum Blood-Bank to Looped peptides” value was found to be 0.7, the “Binding of Control serum Blood-bank to linear peptides” value came to 0.7, the “Binding of Control serum LUMC to linear peptides” value stood at 0.7 and the “Binding of Control serum LUMC to looped peptides” value is given as 0.8. Besides, in assay [2], the “Binding of a rabbit serum to linear peptides” value turned out to be 0.1 and the “Binding of a rabbit serum to looped peptides” value was 0.4.
As to TTKLVVILRIGTQVL, in assay [1], the “Binding of Control Serum Blood-Bank to Looped peptides” value was found to be 0.6, the “Binding of Control serum Blood-bank to linear peptides” value came to 0.3, the “Binding of Control serum LUMC to linear peptides” value is 0.3 and the “Binding of Control serum LUMC to looped peptides” value came to 0.7. The “Recognition of the peptide by the rabbit serum” value in assay [2] is “recognized”.
Regarding TVYVYSRVKNLNSSE, in assay [1], the “Binding of Control Serum Blood-Bank to Looped peptides” value was determined as 0.7, the “Binding of Control serum Blood-bank to linear peptides” value was 0.5, the “Binding of Control serum LUMC to linear peptides” value came out at 0.3 and the “Binding of Control serum LUMC to looped peptides” value came to 0.9. Besides, in assay [2], the “Binding of a rabbit serum to linear peptides” value was found to be 0.8 and the “Binding of a rabbit serum to looped peptides” value came to 0.3.
Consider VANPAMDPIYDEPTT, for which, in assay [1], the “Binding of Control Serum Blood-Bank to Looped peptides” value turned out to be 0.5, the “Binding of Control serum Blood-bank to linear peptides” value was 0.4, the “Binding of Control serum LUMC to linear peptides” value is 0.2 and the “Binding of Control serum LUMC to looped peptides” value is 0.5. In addition, in assay [2], the “Binding of a rabbit serum to linear peptides” value is 0.1 and the “Binding of a rabbit serum to looped peptides” value was determined as 0.5.
Regarding VCWHTHNYDYCIPYN, in assay [1], the “Binding of Control Serum Blood-Bank to Looped peptides” value is listed as 0.7, the “Binding of Control serum Blood-bank to linear peptides” value is 0.7, the “Binding of Control serum LUMC to linear peptides” value came out at 0.8 and the “Binding of Control serum LUMC to looped peptides” value was 0.6. In assay [2], the “Binding of a rabbit serum to linear peptides” value was determined as 0.1 and the “Binding of a rabbit serum to looped peptides” value is given as 0.6.
Consider VIISSIVRQLFKPLT, for which, in assay [1], the “Binding of Control Serum Blood-Bank to Looped peptides of the protein X3 of SARS-CoV Urbani” value came to 0.7, the “Binding of Control serum Blood-bank to linear peptides of the protein X3 of SARS-CoV Urbani” value is listed as 0.8, the “Binding of Control serum LUMC to linear peptides of the protein X3 of SARS-CoV Urbani” value worked out at 0.7 and the “Binding of Control serum LUMC to looped peptides of the protein X3 of SARS-CoV Urbani” value was 0.8. Moreover, in assay [2], the “Rabbit serum linear peptides” value is reported as 0.5 and the “Rabbit serum looped peptides” value came to 0.3.
For the sequence VKNLNSSEGVPDLLV, in assay [1], the “Binding of Control Serum Blood-Bank to Looped peptides” value came to 0.8, the “Binding of Control serum Blood-bank to linear peptides” value is on record as 0.7, the “Binding of Control serum LUMC to linear peptides” value amounted to 1.1 and the “Binding of Control serum LUMC to looped peptides” value was 0.9. Besides, in assay [2], the “Binding of a rabbit serum to linear peptides” value was found to be 0.3 and the “Binding of a rabbit serum to looped peptides” value is on record as 0.6.
Turning to VKPTVYVYSRVKNLN, in assay [1], the “Binding of Control Serum Blood-Bank to Looped peptides” value is on record as 0.8, the “Binding of Control serum Blood-bank to linear peptides” value is on record as 0.8, the “Binding of Control serum LUMC to linear peptides” value is 0.4 and the “Binding of Control serum LUMC to looped peptides” value stood at 0.8. Moreover, in assay [2], the “Binding of a rabbit serum to linear peptides” value worked out at 0.5 and the “Binding of a rabbit serum to looped peptides” value was 0.7.
Consider VNVSLVKPTVYVYSR, for which, in assay [1], the “Binding of Control Serum Blood-Bank to Looped peptides” value turned out to be 0.6, the “Binding of Control serum Blood-bank to linear peptides” value amounted to 0.6, the “Binding of Control serum LUMC to linear peptides” value came out at 0.8 and the “Binding of Control serum LUMC to looped peptides” value is 0.8. Also, in assay [2], the “Binding of a rabbit serum to linear peptides” value is given as 0.4 and the “Binding of a rabbit serum to looped peptides” value worked out at 0.6.
On to VSLVKPTVYVYSRVK, for which, in assay [1], the “Binding of Control Serum Blood-Bank to Looped peptides” value is recorded as 0.6, the “Binding of Control serum Blood-bank to linear peptides” value was 0.9, the “Binding of Control serum LUMC to linear peptides” value stood at 0.6 and the “Binding of Control serum LUMC to looped peptides” value is listed as 0.9. In addition, in assay [2], the “Binding of a rabbit serum to linear peptides” value is recorded as 1.5 and the “Binding of a rabbit serum to looped peptides” value is reported as 2.0.
Consider VYSRVKNLNSSEGVP, for which, in assay [1], the “Binding of Control Serum Blood-Bank to Looped peptides” value is reported as 1.0, the “Binding of Control serum Blood-bank to linear peptides” value is recorded as 0.9, the “Binding of Control serum LUMC to linear peptides” value is 0.6 and the “Binding of Control serum LUMC to looped peptides” value came to 0.7. Besides, in assay [2], the “Binding of a rabbit serum to linear peptides” value was 0.7 and the “Binding of a rabbit serum to looped peptides” value amounted to 0.0.
With VYVYSRVKNLNSSEG, in assay [1], the “Binding of Control Serum Blood-Bank to Looped peptides” value was found to be 0.8, the “Binding of Control serum Blood-bank to linear peptides” value was determined as 0.5, the “Binding of Control serum LUMC to linear peptides” value is recorded as 0.8 and the “Binding of Control serum LUMC to looped peptides” value came out at 0.8. In assay [2], the “Binding of a rabbit serum to linear peptides” value came out at 0.3 and the “Binding of a rabbit serum to looped peptides” value is reported as 0.4.
With WHTHNYDYCIPYNSV, in assay [1], the “Binding of Control Serum Blood-Bank to Looped peptides” value is 0.7, the “Binding of Control serum Blood-bank to linear peptides” value was 0.7, the “Binding of Control serum LUMC to linear peptides” value worked out at 0.8 and the “Binding of Control serum LUMC to looped peptides” value came out at 0.9. In assay [2], the “Binding of a rabbit serum to linear peptides” value is reported as 0.1 and the “Binding of a rabbit serum to looped peptides” value was 0.6.
As to WHTMVQTCTPNVTIN, in assay [1], the “Binding of Control Serum Blood-Bank to Looped peptides” value is reported as 0.5, the “Binding of Control serum Blood-bank to linear peptides” value is 1.0, the “Binding of Control serum LUMC to linear peptides” value amounted to 0.5 and the “Binding of Control serum LUMC to looped peptides” value is listed as 0.4. For the same sequence, in assay [2], the “Rabbit serum linear peptides” value is given as 0.5 and the “Rabbit serum looped peptides” value was determined as 0.0.
Turning to YCCNIVNVSLVKPTV, in assay [1], the “Binding of Control Serum Blood-Bank to Looped peptides” value amounted to 0.7, the “Binding of Control serum Blood-bank to linear peptides” value is 0.9, the “Binding of Control serum LUMC to linear peptides” value worked out at 0.6 and the “Binding of Control serum LUMC to looped peptides” value is 0.6. Moreover, in assay [2], the “Binding of a rabbit serum to linear peptides” value stood at 0.7 and the “Binding of a rabbit serum to looped peptides” value is listed as 0.3.
Take YCIPYNSVTDTIVVT: in assay [1], the “Binding of Control Serum Blood-Bank to Looped peptides” value is 0.7, the “Binding of Control serum Blood-bank to linear peptides” value came to 0.8, the “Binding of Control serum LUMC to linear peptides” value is listed as 0.7 and the “Binding of Control serum LUMC to looped peptides” value is 0.7. In assay [2], the “Binding of a rabbit serum to linear peptides” value is listed as 0.1 and the “Binding of a rabbit serum to looped peptides” value is 0.5.
As for YDYCIPYNSVTDTIV, in assay [1], the “Binding of Control Serum Blood-Bank to Looped peptides” value is reported as 0.5, the “Binding of Control serum Blood-bank to linear peptides” value stood at 0.6, the “Binding of Control serum LUMC to linear peptides” value is 0.7 and the “Binding of Control serum LUMC to looped peptides” value is listed as 0.6. In assay [2], the “Binding of a rabbit serum to linear peptides” value stood at 0.1 and the “Binding of a rabbit serum to looped peptides” value is 0.5.
